Values belong to the compound of their own block, whether it stands above or below them.
What was measured:
[1] = Ratio of Dihydrofolate reductase inhibitory activity in rat to Pneumocystis carinii
[2] = target: T1, Bifunctional dihydrofolate reductase-thymidylate synthase (Toxoplasma gondii, UniProt Q07422); assay: Inhibitory activity against DHFR (Dihydrofolate reductase) from Toxoplasma gondii.
T1 sequence (Q07422 whole entry): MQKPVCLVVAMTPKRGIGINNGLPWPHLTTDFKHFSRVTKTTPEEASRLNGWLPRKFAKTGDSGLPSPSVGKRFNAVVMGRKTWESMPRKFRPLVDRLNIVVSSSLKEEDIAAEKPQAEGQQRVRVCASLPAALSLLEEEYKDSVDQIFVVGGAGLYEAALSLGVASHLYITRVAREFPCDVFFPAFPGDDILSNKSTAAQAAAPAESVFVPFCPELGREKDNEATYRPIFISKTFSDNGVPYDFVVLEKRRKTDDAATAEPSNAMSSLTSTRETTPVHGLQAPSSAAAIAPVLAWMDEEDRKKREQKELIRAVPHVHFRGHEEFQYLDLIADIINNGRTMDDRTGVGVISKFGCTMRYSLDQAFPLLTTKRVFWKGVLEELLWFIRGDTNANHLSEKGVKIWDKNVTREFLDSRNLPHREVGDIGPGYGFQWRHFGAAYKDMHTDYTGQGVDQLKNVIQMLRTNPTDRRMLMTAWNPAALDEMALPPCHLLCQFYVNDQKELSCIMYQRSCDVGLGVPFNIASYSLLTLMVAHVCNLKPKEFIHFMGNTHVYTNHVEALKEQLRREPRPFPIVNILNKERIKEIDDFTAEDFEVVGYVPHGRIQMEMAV

[3] = Ratio of Dihydrofolate reductase inhibitory activity in rat to Toxoplasma gondii
[4] = target: T2, Dihydrofolate reductase (Pneumocystis carinii, UniProt P16184)
T2 sequence (P16184 whole entry): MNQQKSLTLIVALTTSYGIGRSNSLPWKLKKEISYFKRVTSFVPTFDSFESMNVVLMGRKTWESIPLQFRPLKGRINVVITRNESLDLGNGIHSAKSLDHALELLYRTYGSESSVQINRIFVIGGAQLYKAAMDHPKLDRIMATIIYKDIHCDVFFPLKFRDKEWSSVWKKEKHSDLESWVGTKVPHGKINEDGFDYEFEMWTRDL
Description: Inhibitory activity against DHFR (Dihydrofolate reductase) from Pneumocystis carinii.

[5] = target: T3, Dihydrofolate reductase (Rattus norvegicus, UniProt Q920D2); assay: Inhibitory activity against DHFR (Dihydrofolate reductase) from Rat liver
T3 sequence (Q920D2 whole entry): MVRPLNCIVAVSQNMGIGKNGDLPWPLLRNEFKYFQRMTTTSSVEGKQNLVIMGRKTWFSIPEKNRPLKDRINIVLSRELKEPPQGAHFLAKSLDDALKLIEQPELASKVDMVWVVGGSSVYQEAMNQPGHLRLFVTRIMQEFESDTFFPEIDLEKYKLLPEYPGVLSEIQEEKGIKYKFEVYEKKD

[6] = Ratio of Dihydrofolate reductase inhibitory activity in rat to Mycobacterium avium
[7] = target: T4, Dihydrofolate reductase (Mycobacterium avium, UniProt O30463); assay: Inhibitory activity against DHFR (Dihydrofolate reductase) from Mycobacterium avium
T4 sequence (O30463 whole entry): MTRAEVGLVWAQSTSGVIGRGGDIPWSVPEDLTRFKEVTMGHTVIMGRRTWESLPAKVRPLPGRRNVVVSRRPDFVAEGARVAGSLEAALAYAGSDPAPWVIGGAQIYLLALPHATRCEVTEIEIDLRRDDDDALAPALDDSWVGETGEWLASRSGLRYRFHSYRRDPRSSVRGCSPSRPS

SMILES: Nc1nc(N)c2nc(CN3c4ccccc4Sc4ccccc43)cnc2n1
Selectivity ratio [1]: 1.7
IC50 [2]: 110 nM
Selectivity ratio [3]: 1.8
IC50 [4]: 120 nM
IC50 [5]: 200 nM
Selectivity ratio [6]: 6.9
IC50 [7]: 29 nM

SMILES: Nc1nc(N)c2nc(CN(c3ccccc3)c3ccccc3)cnc2n1
Selectivity ratio [1]: 0.82
Selectivity ratio [3]: 3.1
IC50 [5]: 4000 nM
Selectivity ratio [6]: 1.1
IC50 [7]: 3700 nM

SMILES: Nc1nc(N)c2nc(CN3c4ccccc4C=Cc4ccccc43)cnc2n1
Selectivity ratio [1]: 21
IC50 [2]: 43 nM
Selectivity ratio [3]: 102
Selectivity ratio [6]: 367
IC50 [7]: 12 nM

SMILES: Nc1nc(N)c2nc(Cn3c4ccccc4c4ccccc43)cnc2n1
Selectivity ratio [1]: 0.55
IC50 [2]: 12 nM
Selectivity ratio [3]: 4.6
IC50 [4]: 100 nM
IC50 [5]: 55 nM

Selectivity ratio [1]: 3.6
SMILES: Nc1nc(N)c2nc(CN3c4ccccc4CCc4ccccc43)cnc2n1
Selectivity ratio [3]: 5.6

SMILES: Nc1nc(N)c2nc(CN3c4ccccc4Oc4ccccc43)cnc2n1
IC50 [2]: 2200 nM
IC50 [4]: 3400 nM
IC50 [5]: 13000 nM

SMILES: Nc1nc(N)c2nc(CN3c4ccccc4Cc4ccccc43)cnc2n1
Selectivity ratio [1]: 0.64
IC50 [2]: 29 nM
Selectivity ratio [3]: 0.93
IC50 [4]: 42 nM
IC50 [5]: 27 nM
Selectivity ratio [6]: 1.6
IC50 [7]: 17 nM

Source: ChEMBL document CHEMBL1132186, “Structure-based design of selective inhibitors of dihydrofolate reductase: synthesis and antiparasitic activity of 2, 4-diaminopteridine analogues with a bridged diarylamine side chain” (J Med Chem, 1999)
